Data taken from patent publication US12202829B2, “Heterocyclic compound” (FIMECS, Inc., priority 2018, dated 2025).
Where a name gives a salt, the structure may show the parent alone.

Biological target: T1, human XIAP_BIR3 domain purified protein (Homo sapiens, UniProt P98170)
T1 construct: purchased R & D
Experiment: XIAP binding inhibitory activity, HTRF method with b-Smac ligand
Settings: for inhibition at 3 µM: test compound 3 μM, first symbol of the cell, read-out: XIAP binding inhibition rate when the concentration of the test compound is 3 μM; for IC50: second symbol of the cell, read-out: XIAP binding 50% inhibitory concentration (IC50 value)
Description: Human XIAP binding inhibitory activity were measured by the Homogeneous Time Resolved Fluorescence (HTRF) method with using commercially available human XIAP_BIR3 domain purified protein (R & D) and as a ligand a Smac N-terminal peptide (AVPIAQK (SEQ ID NO: 1)) (hereinafter referred to as “b-Smac”; Peptide Research Laboratories, Inc.) biotinylated at the C-terminus according to a conventional method.
The HTRF method will be described in detail below. A test compound diluted with a reaction buffer was added to a 384-well white shallow bottom plate (Greiner 784076) at 1 μL/well and flash centrifuged for 30 seconds. Subsequently, human XIAP_BIR3 domain purified protein was diluted with the reaction buffer (25 mM HEPES Buffer containing 100 mM NaCl, 0.1% BSA, and 0.1% triton X-100, pH 7.5) to obtain a 90 nM sample diluent, and the resultant sample diluent was added to the above-mentioned white superficial plate at 4.5 μL/well and flash centrifuged for 30 seconds. Subsequently, b-Smac diluted to 90 nM with the reaction buffer was added to the above-mentioned white superficial plat at 4.5 μL/well and flash centrifuged for 30 seconds. A mixed solution of Anti-6 HIS-Cryptate (Eu3+Cryptate-conjugated mouse monoclonal antibody anti-6 Histidine; cisbio) and Streptavidin-XL^ent! (Highgrade XL665-conjugated streptavidin; cisbio) both diluted 100-fold with HTRF detection buffer (cisbio) at a volume ratio of 1:1 was added to the above white superficial plate at 10 μL/well. After flash centrifuging the white shallow bottom plate for 30 seconds, the white shallow bottom plate was left at room temperature for 4 hours or more in the dark. The white superficial plate after being left was subjected to fluorescence intensity measurement (excitation wavelength: 320 nm, fluorescence wavelength: 665 nm and 615 nm) by EnVision (Perkin Elmer).
The binding inhibition rate (%) was calculated based on the HTRF ratio in the presence of the test compound to the HTRF ratio in the absence of the test compound (fluorescence intensity at 665 nm/fluorescence intensity at 615 nm).

T1 sequence (P98170 252-356 limits assumed): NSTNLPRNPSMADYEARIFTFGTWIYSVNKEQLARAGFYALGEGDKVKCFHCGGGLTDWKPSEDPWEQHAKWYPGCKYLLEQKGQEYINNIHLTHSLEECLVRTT

| SMILES | inhibition at 3 µM | IC50 |
| --- | --- | --- |
| CN[C@@H](C)C(=O)N[C@H](C(=O)N1CCN(C(=O)c2c(C(=O)N3CCC[C@H]3COC)c3ccc(OC)cc3n2C)CC1)C1CCCCC1 [Example 29, (S)—N—((S)-1-Cyclohexyl-2-(4-(6-methoxy-3-((S)-2-(methoxymethyl)pyrrolidine-1-carbonyl)-1-methyl-1H-indole-2-carbonyl)piperazin-1-yl)-2-oxoethyl)-2-(methylamino)propanamide Hydrochloride] | 50 to 75% |  |
| CN[C@@H](C)C(=O)N[C@H](C(=O)N1CCN(C(=O)c2c(OCCOCCOCc3ccccc3)c3cc(F)c(F)cc3n2C)CC1)C1CCCCC1 [Example 49, (S)—N—((S)-2-(4-(3-(2-(2-(Benzyloxy)ethoxy)ethoxy)-5,6-difluoro-1-methyl-1H-indole-2-carbonyl)piperazin-1-yl)-1-cyclohexyl-2-oxoethyl)-2-(methylamino)propanamide] |  | 3 to 30 µM |
| CN[C@@H](C)C(=O)N[C@H](C(=O)N1CCN(C(=O)c2c(OCCOCCO)c3cc(F)c(F)cc3n2C)CC1)C1CCCCC1 [Example 50, (S)—N—((S)-1-Cyclohexyl-2-(4-(5,6-difluoro-3-(2-(2-hydroxyethoxy)ethoxy)-1-methyl-1H-indole-2-carbonyl)piperazin-1-yl)-2-oxoethyl)-2-(methylamino)propanamide] |  | 3 to 30 µM |
| CN[C@@H](C)C(=O)N[C@H](C(=O)N1CCN(C(=O)c2c(C)c3ccccc3n2CCOC)CC1)C1CCCCC1 [Example 51, (S)—N—((S)-1-Cyclohexyl-2-(4-(1-(2-methoxyethyl)-3-methyl-1H-indole-2-carbonyl)piperazin-1-yl)-2-oxoethyl)-2-(methylamino)propanamide] |  | 3 to 30 µM |
| CN[C@@H](C)C(=O)N[C@H](C(=O)N1CCN(C(=O)c2cc3ccc(OC)cc3n2C)[C@@H](C)C1)C1CCCCC1 [Example 33, (S)—N—((S)-1-Cyclohexyl-2-((S)-4-(6-methoxy-1-methyl-1H-indole-2-carbonyl)-3-methylpiperazin-1-yl)-2-oxoethyl)-2-(methylamino)propanamide Hydrochloride] | > 75% |  |
| CN[C@@H](C)C(=O)N[C@H](C(=O)N1CCN(C(=O)c2cc3c(OCCOCCOCCO)c(F)c(F)cc3n2C)CC1)C1CCCCC1 [Example 67, (S)—N—((S)-1-Cyclohexyl-2-(4-(5,6-difluoro-4-(2-(2-(2-hydroxyethoxy)ethoxy)ethoxy)-1-methyl-1H-indole-2-carbonyl)piperazin-1-yl)-2-oxoethyl)-2-(methylamino)propanamide] |  | 0.3 to 3 µM |
| CN[C@@H](C)C(=O)N[C@H](C(=O)N1CCN(C(=O)c2cc3ccnn3cc2C)CC1)C1CCCCC1 [Example 3, (S)-N-((S)-1-cyclohexyl-2-(4-(6-methylpyrazolo[1,5-a]pyridine-5-carbonyl)piperazin-1-yl)-2-oxoethyl)-2-(methylamino)propanamide] | 25 to 50% |  |
| CN[C@@H](C)C(=O)N[C@H](C(=O)N1C2CC1CN(C(=O)c1cc3cc(F)c(F)cc3n1C)C2)C1CCCCC1 [Example 60, (2S)-N-((1S)-1-cyclohexyl-2-(3-((5,6-difluoro-1-methyl-1H-indol-2-yl)carbonyl)-3,6-diazabicyclo[3.1.1]heptan-6-yl)-2-oxoethyl)-2 (methylamino)propanamide] |  | 3 to 30 µM |
| CN[C@@H](C)C(=O)N[C@H](C(=O)N1CCN(C(=O)c2c(C(=O)NCCOCCOCCOCCN3CCN(c4cc(Nc5ncc(C(=O)Nc6c(C)cccc6Cl)s5)nc(C)n4)CC3)c3cc(F)c(F)cc3n2C)CC1)C1CCCCC1 [Example 82, N-(2-Chloro-6-methylphenyl)-2-((6-(4-(1-(2-(4-((S)-2-cyclohexyl-2-((S)-2-(methylamino)propanamido)acetyl)piperazine-1-carbonyl)-5,6-difluoro-1-methyl-1H-indol-3-yl)-1-oxo-5,8,11-trioxa-2-azatridecan-13-yl)piperazin-1-yl)-2-methylpyrimidin-4-yl)amino)thiazole-5-carboxamide Trifluoroacetate] |  | 0.3 to 3 µM |
| CN[C@@H](C)C(=O)N[C@@H](C(=O)N1CCN(C(=O)c2cc3cc(F)c(F)cc3n2CCOCCOCc2ccccc2)CC1)C1CCCCC1 [Example 46, (S)—N—((R)-2-(4-(1-(2-(2-(Benzyloxy)ethoxy)ethyl)-5,6-difluoro-1H-indole-2-carbonyl)piperazin-1-yl)-1-cyclohexyl-2-oxoethyl)-2-(methylamino)propanamide Hydrochloride] |  | 3 to 30 µM |
| CN[C@@H](C)C(=O)N[C@H](C(=O)N1CCN(C(=O)c2ccc3cc(C)cn3c2)CC1)C1CCCCC1 [Example 20, (S)-N-((S)-1-cyclohexyl-2-(4-(2-methylindolizine-6-carbonyl)piperazin-1-yl)-2-oxoethyl)-2-(methylamino)propanamide] | > 75% |  |
| CN[C@@H](C)C(=O)N[C@H](C(=O)N1CCN(C(=O)c2c(C(=O)NCCOCCOCCN=[N+]=[N-])c3ccc(OC)cc3n2C)CC1)C1CCCCC1 [Example 61, N-(2-(2-(2-Azidoethoxy)ethoxy)ethyl)-2-(4-((S)-2-cyclohexyl-2-((S)-2-(methylamino)propanamido)acetyl)piperazine-1-carbonyl)-6-methoxy-1-methyl-1H-indole-3-carboxamide] | > 75% |  |
| CCOc1cc(C(=O)N2CCN(C(=O)[C@@H](NC(=O)[C@H](C)NC)C3CCCCC3)CC2)n(C)n1 [Example 12, (S)-N-((S)-1-cyclohexyl-2-(4-(3-ethoxy-1-methyl-1H-pyrazole-5-carbonyl)piperazin-1-yl)-2-oxoethyl)-2-(methylamino)propanamide] | > 25% |  |
| CN[C@@H](C)C(=O)N[C@H](C(=O)N1CCN(C(=O)c2c(C(=O)NCCOCCOCCOCCNC(=O)C[C@@H]3N=C(c4ccc(Cl)cc4)c4c(sc(C)c4C)-n4c(C)nnc43)c3ccc(OC)cc3n2C)CC1)C1CCCCC1 [Example 73, N-(1-((S)-4-(4-chlorophenyl)-2,3,9-trimethyl-6H-thieno[3,2-f][1,2,4]triazolo[4,3-a][1,4]diazepin-6-yl)-2-oxo-6,9,12-trioxa-3-azatetradecan-14-yl)-2-(4-((S)-2-cyclohexyl-2-((S)-2-(methylamino)propanamido)acetyl)piperazine-1-carbonyl)-6-methoxy-1-methyl-1H-indole-3-carboxamide] |  | < 0.3 µM |
| CN[C@@H](C)C(=O)N[C@H](C(=O)N1CCN(C(=O)c2ccc3c(c2)cc(C)n3CCOCCOCCOCCO)CC1)C1CCCCC1 [Example 70, (S)—N—((S)-1-Cyclohexyl-2-(4-(1-(2-(2-(2-(2-hydroxyethoxy)ethoxy)ethoxy)ethyl)-2-methyl-1H-indole-5-carbonyl)piperazin-1-yl)-2-oxoethyl)-2-(methylamino)propanamide] |  | 0.3 to 3 µM |
| CN[C@@H](C)C(=O)N[C@H](C(=O)N1CCN(C(=O)c2ccc3c(C)n(C)nc3c2)CC1)C1CCCCC1 [Example 23, (S)-N-((S)-1-cyclohexyl-2-(4-(2,3-dimethyl-2H-indazole-6-carbonyl)piperazin-1-yl)-2-oxoethyl)-2-(methylamino)propanamide] | > 25% |  |
| CN[C@@H](C)C(=O)N[C@H](C(=O)N1CCN(C(=O)c2cc3ccc(OC)cc3n2C)[C@H](C)C1)C1CCCCC1 [Example 34, (S)—N—((S)-1-Cyclohexyl-2-((R)-4-(6-methoxy-1-methyl-1H-indole-2-carbonyl)-3-methylpiperazin-1-yl)-2-oxoethyl)-2-(methylamino)propanamide Hydrochloride] | > 75% |  |
| CN[C@@H](C)C(=O)N[C@H](C(=O)N1C[C@H]2CC[C@@H]1CN2C(=O)c1cc2cc(F)c(F)cc2n1C)C1CCCCC1 [Example 59, (2S)-N-((1S)-1-cyclohexyl-2-(5-((5,6-difluoro-1-methyl-1H-indol-2-yl)carbonyl)-2,5-diazabicyclo[2.2.2]octan-2-yl)-2-oxoethyl)-2-(methylamino)propanamide] |  | 3 to 30 µM |
| CN[C@@H](C)C(=O)N[C@H](C(=O)N1CCN(C(=O)c2c(OCCOCCOCCOCCO)c3cc(F)c(F)cc3n2C)CC1)C1CCCCC1 [Example 63, (S)-N-((S)-1-cyclohexyl-2-(4-(5,6-difluoro-3-(2-(2-(2-(2-hydroxyethoxy)ethoxy)ethoxy)ethoxy)-1-methyl-1H-indole-2-carbonyl)piperazin-1-yl)-2-oxoethyl)-2-(methylamino)propanamide] | 25 to 50% |  |
| CN[C@@H](C)C(=O)N[C@H](C(=O)N1CCN(C(=O)c2cc3ccc(F)cc3n2CCOC)CC1)C1CCCCC1 [Example 53, (S)—N—((S)-1-cyclohexyl-2-(4-(6-fluoro-1-(2-methoxyethyl)-1H-indole-2-carbonyl)piperazin-1-yl)-2-oxoethyl)-2-(methylamino)propanamide] |  | 3 to 30 µM |
